Assay results published in US6753297B2, “Use of indole-3-succinic acid as auxin” (priority 2001, dated 2004).
Values belong to the molecule of their own block, whether it stands above or below them.

Assays:
Fuchsia hybrida = test: Effectiveness of indole-3-succinic acid derivatives in root growth, procedure of Example 3; type: in vivo; settings: 10^−7 M aqueous solution
Method: (§1) Five new-growth cuttings of two different varieties of Fuchsia hybrida (i.e., Varigated Fuchsia and Swingtime Fuchsia) were placed into the 50 mL solutions contained in orange plastic pill containers that were blackened with black electrician's tape. The solutions were placed in a fiberglass solar prism greenhouse (90% of UV light is filtered out of sunlight) in which the temperatures varied from 55° F. (night) to 100° F. (day). The solutions were topped with deionized water daily to the 50 mL mark to compensate for water […] and evaporation. Readings of the root growth were measured in total mm for the cuttings in a particular solution on days 7, 10, 14, 18, 22, 26, 30, and 34. These were recorded as the number of rootlets/total length (mm). […] Therefore, all data reflect the average mm root growth per survived cutting.
The process recited in Example 1 was followed to make the derivatives and they were each tested in accordance with the procedure in Example 3 in a 10^−7 M aqueous solution. The derivatives and their effectiveness compared to conventional auxins is reported below.

Swingtime Fuchsia = test: Root growth of Swingtime Fuchsia cuttings in hydroponic auxin solution; type: in vivo, Fuchsia hybrida; settings: for Enhancement Ratio: Swingtime Fuchsia (SF), R = (ISAx − H2O)/(IBA − H2O), average root growth per cutting; for root growth activity compared to IBA: versus 10^−7 M IBA
Method: (§2) This example illustrates the auxin effect of each indole-3-succinic acid enantiomer and indole-3-succinic acid racemate, and compares them to IBA and water. A detailed description of this root growth study follows.
(§3) Fresh solutions were used in each experiment. Weights of hormone salts were measured to ±0.01 mg on a Mettler H-16 single-pan mechanical balance (reproducibility=±0.03 mg). Using indole-3-succinic acid R and S enantiomers as the 2×NH4^+ salt, 1.40 mg, was dissolved in 95% ethanol (20 mL) and slowly diluted to 500 mL with deionized water to make a stock solution of 1.047×10^−5 molar concentration. Dilutions were then made in the following manner.
(§4) For the concentration study (S)-indole-3-succinic acid; 2NH4^+ (98% e/e, 1.41 mg), and IBA Na(1.13 mg) were used to make stock solution of 1.055×10^−5 and 1.005×10^−5 molar, respectively. Deionized water was also used as a control.
as §1
(§5) This example compares indole-3-succinic acid enantiomers and ISA racemate to IBA and IAA. More specifically, Table 1 illustrates the relative effectiveness (in promoting root growth) of different indole-3-succinic acid solutions compared to 10^−7 M indole-3-butyric acid (IBA) and a 10^−7 M […].
(§6) This example was conducted in the same manner as in Example 2 above.

Varigated Fuchsia = test: Root growth of Varigated Fuchsia cuttings in hydroponic auxin solution; type: in vivo, Fuchsia hybrida; settings: for Enhancement Ratio: Varigated Fuchsia (VF), R = (ISAx − H2O)/(IBA − H2O), average root growth per cutting; for root growth activity compared to IBA: versus 10^−7 M IBA
Method: as §2, §3, §4, §1, §5, §6

Compound: O=C(O)CC(C(=O)O)c1c[nH]c2cccc(Cl)c12 (centres unmarked) [4-chloroindole-3-succinic acid]
Effectiveness compared to IAA (Fuchsia hybrida): 22× more effective than IAA

melting point: 196 to 198 °C
Compound: O=C(O)CC(C(=O)O)c1c[nH]c2ccccc12 (racemic) [Racemic ISA, indole-3-succinic acid]
Enhancement Ratio (Swingtime Fuchsia; 10^−7 M): 7.0
root growth activity compared to IBA (Swingtime Fuchsia; Swingtime Fuchsia): significantly higher

Compound: O=C(O)CC(c1ccccc1)c1c[nH]c2ccccc12 (centres unmarked) [3′-indole-3-phenylpropanoic acid]
Effectiveness compared to IAA (Fuchsia hybrida): 2× as effective as IAA

Compound: O=C(O)C[C@H](C(=O)O)c1c[nH]c2ccccc12 [(S)-ISA, (S)-indole-3-succinic acid]
Enhancement Ratio (Varigated Fuchsia; 10^−7 M): 3.8
Enhancement Ratio (Varigated Fuchsia; 10^−8 M): 4.6
potency compared to the other ISA enantiomer (Varigated Fuchsia; Varigated Fuchsia, all concentrations of ISA, FIG. 5): more potent
Enhancement Ratio (Swingtime Fuchsia; 10^−7 M): 5.7
Enhancement Ratio (Swingtime Fuchsia; 10^−8 M): 4.8

Compound: O=C(O)C[C@@H](C(=O)O)c1c[nH]c2ccccc12 [(R)-ISA, (R)-indole-3-succinic acid]
Enhancement Ratio (Varigated Fuchsia; 10^−7 M): 0.7
Enhancement Ratio (Varigated Fuchsia; 10^−8 M): 4.4
root growth activity compared to IBA (Varigated Fuchsia; Varigated Fuchsia): nearly the same activity
Enhancement Ratio (Swingtime Fuchsia; 10^−7 M): 5.6
Enhancement Ratio (Swingtime Fuchsia; 10^−8 M): 7.1
potency compared to the other ISA enantiomer (Swingtime Fuchsia; Swingtime Fuchsia, 10^−8 M, FIG. 5): more potent

Compound: CC(CC(=O)O)c1c[nH]c2ccccc12 (centres unmarked) [3′-indole-3-methylpropanoic acid]
Effectiveness compared to IBA (Fuchsia hybrida): same as IBA

Compound: O=C(O)Cc1c[nH]c2ccccc12 [IAA, indole-3-acetic acid, reference compound]
Enhancement Ratio (Varigated Fuchsia; 10^−7 M): 0
root growth activity compared to IBA (Varigated Fuchsia; Varigated Fuchsia): substantially lower levels of activity
Enhancement Ratio (Swingtime Fuchsia; 10^−7 M): 0
root growth activity compared to IBA (Swingtime Fuchsia; Swingtime Fuchsia): substantially lower levels of activity

Compound: O=C(O)CC(C(=O)O)c1c[nH]c2ccc(Br)cc12 (centres unmarked) [5-bromoindole-3-succinic acid]
Effectiveness compared to IAA (Fuchsia hybrida): same as IAA

Compound: O=C(O)CC(C(=O)O)c1c[nH]c2ccc(Cl)cc12 (centres unmarked) [5-chloroindole-3-succinic acid]
Effectiveness compared to IAA (Fuchsia hybrida): 2× more effective than IAA
